Laboratory results published in the supplement of paper PMC11061612.

Experiments:
[1] = test system: WSU-NHL (B-Cell Non-Hodgkin's Lymphoma); assay: Bliss excess, mean over the matrix (fraction); higher = more synergy
How it was run: (§1)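 After 24 hours at 37°C and 5% CO2 in 1536-well plates, cells in DMEM/F12 or RPMI plus 10% FBS received two-drug dose matrices for 72 hours. Viability came from CellTiter-Glo 2.0 luminescence and was scaled as inhibition, anchored at 0 by vehicle wells and at 1 by blank wells. Combination Emax is taken as the second-highest inhibition in the matrix, and Bliss excess as the observed combination effect less EA + EB − EA·EB, with EA and EB the single-agent effects.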

[2] = test system: SW1710 (Bladder Carcinoma); assay: as above
How it was run: as §1

CAL-72 (Osteosarcoma) [3] = assay: as above
How it was run: as §1

[4] = test system: OVCAR-5 (Ovarian Carcinoma); assay: as above
How it was run: as §1

MPP-89 (Mesothelioma) [5] = assay: as above
How it was run: as §1

[6] = test system: SNU-16 (Gastric Carcinoma); assay: as above
How it was run: as §1

KS-1 (Glioblastoma) [7] = assay: as above
How it was run: as §1

[8] = test system: TGBC1TKB (Biliary Tract Carcinoma); assay: as above
How it was run: as §1

LOXIMVI (Melanoma) [9] = assay: as above
How it was run: as §1

[10] = test system: LS-123 (Colorectal Carcinoma); assay: as above
How it was run: as §1

[11] = test system: BE-13 (T-Lymphoblastic Leukemia); assay: as above
How it was run: as §1

[12] = test system: KYAE-1 (Esophageal Adenocarcinoma); assay: as above
How it was run: as §1

[13] = test system: NCI-H524 (Small Cell Lung Carcinoma); assay: as above
How it was run: as §1

[14] = test system: ESS-1 (Other Solid Carcinomas); assay: as above
How it was run: as §1

[15] = test system: YAPC (Pancreatic Carcinoma); assay: as above
How it was run: as §1

A673 (Ewing's Sarcoma) [16] = assay: as above
How it was run: as §1

[17] = test system: SNU-449 (Hepatocellular Carcinoma); assay: as above
How it was run: as §1

EW-11 (Ewing's Sarcoma) [18] = assay: as above
How it was run: as §1

GAMG (Glioblastoma) [19] = assay: as above
How it was run: as §1

[20] = test system: HH (T-Cell Non-Hodgkin's Lymphoma); assay: as above
How it was run: as §1

[21] = test system: LNZTA3WT4 (Low Grade Glioma); assay: as above
How it was run: as §1

[22] = test system: SAS (Oral Cavity Carcinoma); assay: as above
How it was run: as §1

[23] = test system: HuCCT1 (Biliary Tract Carcinoma); assay: as above
How it was run: as §1

[24] = test system: WSU-NHL (B-Cell Non-Hodgkin's Lymphoma); assay: combination Emax (second highest fraction inhibited in the dose matrix, 72 h); higher = more inhibition; extreme values may be limits of the assay
How it was run: as §1

[25] = test system: SW1710 (Bladder Carcinoma); assay: as above
How it was run: as §1

CAL-72 (Osteosarcoma) [26] = assay: as above
How it was run: as §1

[27] = test system: OVCAR-5 (Ovarian Carcinoma); assay: as above
How it was run: as §1

MPP-89 (Mesothelioma) [28] = assay: as above
How it was run: as §1

[29] = test system: SNU-16 (Gastric Carcinoma); assay: as above
How it was run: as §1

KS-1 (Glioblastoma) [30] = assay: as above
How it was run: as §1

[31] = test system: TGBC1TKB (Biliary Tract Carcinoma); assay: as above
How it was run: as §1

LOXIMVI (Melanoma) [32] = assay: as above
How it was run: as §1

[33] = test system: LS-123 (Colorectal Carcinoma); assay: as above
How it was run: as §1

[34] = test system: BE-13 (T-Lymphoblastic Leukemia); assay: as above
How it was run: as §1

[35] = test system: KYAE-1 (Esophageal Adenocarcinoma); assay: as above
How it was run: as §1

[36] = test system: NCI-H524 (Small Cell Lung Carcinoma); assay: as above
How it was run: as §1

[37] = test system: ESS-1 (Other Solid Carcinomas); assay: as above
How it was run: as §1

[38] = test system: YAPC (Pancreatic Carcinoma); assay: as above
How it was run: as §1

A673 (Ewing's Sarcoma) [39] = assay: as above
How it was run: as §1

[40] = test system: SNU-449 (Hepatocellular Carcinoma); assay: as above
How it was run: as §1

EW-11 (Ewing's Sarcoma) [41] = assay: as above
How it was run: as §1

GAMG (Glioblastoma) [42] = assay: as above
How it was run: as §1

[43] = test system: HH (T-Cell Non-Hodgkin's Lymphoma); assay: as above
How it was run: as §1

[44] = test system: LNZTA3WT4 (Low Grade Glioma); assay: as above
How it was run: as §1

[45] = test system: SAS (Oral Cavity Carcinoma); assay: as above
How it was run: as §1

[46] = test system: HuCCT1 (Biliary Tract Carcinoma); assay: as above
How it was run: as §1
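Wherever Bliss excess, mean over the matrix is given: after 72 h of two-drug dosing.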

With Cc1cc2ncnn2cc1Nc1ncc2c(n1)n(C1CCOCC1)c(=O)n2C [AZD7648] + COc1cc([C@@H]2c3cc4c(cc3[C@@H](O[C@@H]3O[C@@H]5CO[C@@H](C)O[C@H]5[C@H](O)[C@H]3O)[C@H]3COC(=O)[C@H]23)OCO4)cc(OC)c1O [Etoposide] (first compound max 10 µM, 7x7, partner max 10 µM) the Bliss excess [1] was 0.0848, the Bliss excess [2] was -0.0119 and the Bliss excess (CAL-72 (Osteosarcoma) [3]) was 0.0314. For the same compound, the Bliss excess [4] was 0.0481, the Bliss excess (MPP-89 (Mesothelioma) [5]) was 0.0858 and the Bliss excess [6] was 0.0953. The Bliss excess (KS-1 (Glioblastoma) [7]) was 0.0894, the Bliss excess [8] was 0.0108 and the Bliss excess (LOXIMVI (Melanoma) [9]) was 0.0988. The Bliss excess [10] was 0.0811, the Bliss excess [11] was 0.0881 and the Bliss excess [12] was 0.0032. For the same compound, the Bliss excess [13] was 0.101, the Bliss excess [14] was 0.113 and the Bliss excess [15] was 0.0217. It also gave a Bliss excess (A673 (Ewing's Sarcoma) [16]) of 0.111, a Bliss excess [17] of 0.0282 and a Bliss excess (EW-11 (Ewing's Sarcoma) [18]) of 0.0002. It also gave a Bliss excess (GAMG (Glioblastoma) [19]) of 0.147, a Bliss excess [20] of -0.0254 and a Bliss excess [21] of 0.102. The Bliss excess [22] was 0.118, the Bliss excess [23] was 0.0335 and the “combination Emax” value [24] was 1. For the same compound, the “combination Emax” value [25] was 0.301, the “combination Emax” value (CAL-72 (Osteosarcoma) [26]) was 0.822 and the “combination Emax” value [27] was 0.546. For the same compound, the “combination Emax” value (MPP-89 (Mesothelioma) [28]) was 0.604, the “combination Emax” value [29] was 0.794 and the “combination Emax” value (KS-1 (Glioblastoma) [30]) was 0.431. The “combination Emax” value [31] was 0.326, the “combination Emax” value (LOXIMVI (Melanoma) [32]) was 0.699 and the “combination Emax” value [33] was 0.884. The “combination Emax” value [34] was 0.976, the “combination Emax” value [35] was 0.547 and the “combination Emax” value [36] was 0.617. For the same compound, the “combination Emax” value [37] was 1, the “combination Emax” value [38] was 0.531 and the “combination Emax” value (A673 (Ewing's Sarcoma) [39]) was 0.855. The “combination Emax” value [40] was 0.296, the “combination Emax” value (EW-11 (Ewing's Sarcoma) [41]) was 0.682 and the “combination Emax” value (GAMG (Glioblastoma) [42]) was 0.872. For the same compound, the “combination Emax” value [43] was 0.141, the “combination Emax” value [44] was 0.794 and the “combination Emax” value [45] was 0.985. The “combination Emax” value [46] was 0.648.

In the case of C[C@@H](Oc1cc(-c2cnn(C3CCNCC3)c2)cnc1N)c1c(Cl)ccc(F)c1Cl [Crizotinib] + Cn1cnc2c(F)c(Nc3ccc(Br)cc3Cl)c(C(=O)NOCCO)cc21 [Selumetinib] (first compound max 10 µM, 7x7, partner max 10 µM), the Bliss excess [1] is reported as -0.0382, the Bliss excess [2] is reported as -0.0956 and the Bliss excess (CAL-72 (Osteosarcoma) [3]) is reported as -0.0411. For the same compound, the Bliss excess [4] was -0.0324, the Bliss excess (MPP-89 (Mesothelioma) [5]) was -0.0078 and the Bliss excess [6] was -0.0073. The Bliss excess (KS-1 (Glioblastoma) [7]) was 0.0483, the Bliss excess [8] was -0.0534 and the Bliss excess (LOXIMVI (Melanoma) [9]) was -0.0068. For the same compound, the Bliss excess [10] was -0.0378, the Bliss excess [11] was -0.0251 and the Bliss excess [12] was -0.0153. It also gave a Bliss excess [13] of -0.0449, a Bliss excess [14] of -0.0634 and a Bliss excess [15] of -0.0319. It also gave a Bliss excess (A673 (Ewing's Sarcoma) [16]) of -0.0206, a Bliss excess [17] of -0.0665 and a Bliss excess (EW-11 (Ewing's Sarcoma) [18]) of -0.0627. The Bliss excess (GAMG (Glioblastoma) [19]) was -0.0308, the Bliss excess [20] was -0.0238 and the Bliss excess [21] was -0.0285. For the same compound, the Bliss excess [22] was -0.0073, the Bliss excess [23] was -0.0516 and the “combination Emax” value [24] was 0.98. For the same compound, the “combination Emax” value [25] was 0.381, the “combination Emax” value (CAL-72 (Osteosarcoma) [26]) was 0.59 and the “combination Emax” value [27] was 0.7. For the same compound, the “combination Emax” value (MPP-89 (Mesothelioma) [28]) was 0.37, the “combination Emax” value [29] was 0.989 and the “combination Emax” value (KS-1 (Glioblastoma) [30]) was 0.646. For the same compound, the “combination Emax” value [31] was 0.147, the “combination Emax” value (LOXIMVI (Melanoma) [32]) was 0.926 and the “combination Emax” value [33] was 0.62. For the same compound, the “combination Emax” value [34] was 0.974, the “combination Emax” value [35] was 0.0881 and the “combination Emax” value [36] was 0.983. For the same compound, the “combination Emax” value [37] was 0.773, the “combination Emax” value [38] was 0.526 and the “combination Emax” value (A673 (Ewing's Sarcoma) [39]) was 0.742. The “combination Emax” value [40] was 0.455, the “combination Emax” value (EW-11 (Ewing's Sarcoma) [41]) was 0.81 and the “combination Emax” value (GAMG (Glioblastoma) [42]) was 0.54. The “combination Emax” value [43] was 0.0931, the “combination Emax” value [44] was 0.456 and the “combination Emax” value [45] was 0.781. The “combination Emax” value [46] was 0.725.
